Experimental data: US4146622A, “Aziridinyl quinone anti-transplanted tumor agents” (priority 1977, dated 1979)
Values after ≈ are worked out from the molar mass of the structure shown. Values joined by “and” are separate entries in the source; they are usually repeats but may differ in a detail not shown here. Equal values may be shown once. “Also recorded” adds a separate entry of the source. Read-outs that look alike come from different tables or passages of the source.

Tests used:
lymphoid leukemia L1210 [1] = experiment: Intraperitoneal (IP) lymphoid leukemia L1210 transplanted mouse tumor test; type: in vivo, murine; conditions: for ILS (increase in life span) / T - C (average weight change of test group minus control): Table II; for T - C (average weight change of test group minus control): day 5
From the text: ^(a) Day 1-9 treatment schedule (9 injections)
^(b) Day 1,5,9 treatment schedule (3 injections)
^(c) Day 1 only treatment schedule (1 injection)
^(f) Percentage increase in life span of treated animals [(treated
survival .div. control survival) × 100%] - 100%

[2] = system: P388 lymphocytic leukemia; experiment: Intraperitoneal (IP) lymphocytic leukemia P388 transplanted mouse tumor test; type: in vivo, murine
From the text: ^b Ip tumor implantation, ip QD1-9 treatment schedule.
(§1) The L1210, P388 and B16 test systems described in Table II utilize intraperitoneal (IP) tumor implantation and IP drug treatment while the Lewis lung system employs subcutaneous tumor implantation and IP treatment.
Aqueous saline solution (0.9%) was used as the drug vehicle. Normally, five doses were employed per experiment with the top dose chosen to produce toxicity. The lower doses were 50% of each preceeding dose.
Consistent with NCI antitumor test protocols, intraperitoneal (IP) administration of the drug was employed with all five tumor systems investigated. Tumor implantation was IP in the systems designated IP leukemia L1210 and P388 as well as B16 melanoma.

B16 melanocarcinoma = experiment: Intraperitoneal B16 melanocarcinoma transplanted mouse tumor test; type: in vivo, murine; conditions: for ILS (increase in life span): Table II
Lewis lung carcinoma = experiment: Lewis lung carcinoma, subcutaneous tumor implantation; type: in vivo, murine
From the text: ^c Subcutaneous tumor implantation, ip QD5-15 treatment schedule.
as §1

lymphoid leukemia L1210 [3] = experiment: Intracerebral (IC) lymphoid leukemia L1210 test; type: in vivo, murine; conditions: for ILS (increase in life span): Table III
From the text: (§2) ^b Ic tumor implantation, ip QD1-9 treatment schedule.
(§3) The L1210, P388 and B16 test systems described in Table II utilize intraperitoneal (IP) tumor implantation and IP drug treatment while the Lewis lung system employs subcutaneous tumor implantation and IP treatment. All three CNS tumor models (Table III) use intracerebral (IC) tumor implantation and IP treatment.
Consistent with NCI antitumor test protocols, intraperitoneal (IP) administration of the drug was employed with all five tumor systems investigated. Tumor implantation was IP in the systems designated IP leukemia L1210 and P388 as well as B16 melanoma. Intracerebral (IC) tumor implantation was utilized in the IC L1210 and ependymoblastoma tumor systems.

[4] = system: P388 lymphocytic leukemia; experiment: Intracerebral (IC) lymphocytic leukemia P388 test; type: in vivo, murine; conditions: for ILS (increase in life span): Table III
From the text: as §2
Central nervous system antitumor activity is given in Table III for the intracerebrally implanted L1210, P388, and ependymoblastoma tumor systems.
All three CNS tumor models (Table III) use intracerebral (IC) tumor implantation and IP treatment.

ependymoblastoma = experiment: Intracerebral (IC) ependymoblastoma (EM) brain tumor test; type: in vivo, murine; conditions: for ILS (increase in life span) / T - C (average weight change of test group minus control) / Cures (animals alive per six on day of termination): Table III; for ILS (increase in life span) / T - C (average weight change of test group minus control): ic ependymoblastoma; for T - C (average weight change of test group minus control): day 5
[5] = Room temperature water solubility; type: physicochemical
Summary of the method: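 Water added incrementally by pipet, with shaking, to a weighed amount of compound at room temperature until dissolved; values are approximate.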

[6] = Octanol/H2O partition coefficient (log P); type: physicochemical; conditions: partition coefficient measured
From the text: ^(b) Octanol/H2 O values determined by C. Hansch and M. Yamakawa

[7] = system: IP ascites tumor systems (leukemia L1210 and P388); experiment: IP ascites tumor systems (leukemia L1210 and P388); type: in vivo, murine
From the text: (§4) The criterion for minimum activity, %ILS, is defined here as follows: Intraperitoneal and intracerebral leukemia L1210 and intraperitoneal leukemia P388, 25%; intraperitoneal B16 melanoma and intracerebral ependymoblastoma, 40%. Consistent with NCI antitumor test protocols, intraperitoneal (IP) administration of the drug was employed with all five tumor systems investigated. Tumor implantation was IP in the systems designated IP leukemia L1210 and P388 as well as B16 melanoma. Intracerebral (IC) tumor implantation was utilized in the IC L1210 and ependymoblastoma tumor systems.

[8] = system: transplanted mouse tumor test systems; experiment: Transplanted mouse tumor test systems (overall statement); type: in vivo, murine
From the text: The criterion for minimum activity is defined here as follows: intraperitoneal and intracerebral L1210 leukemia, 25%; intraperitoneal and intracerebral P388 leukemia, 25%; B16 melanoma, 40%; Lewis lung carcinoma, 25%; and intracerebral ependymoblastoma, 40%.
as §3, §4

[9] = IP L1210, ip QD1-9, 0.88 mg/kg/injection
[10] = IP L1210, ip QD1-9, 1.30 mg/kg/injection
[11] = IP L1210, ip QD1-9, 6.25 mg/kg/injection
[12] = ip QD1-5, 1.00 mg/kg/injection, expt 133 (day 99)
[13] = ip QD1-5, 1.00 mg/kg/injection, expts 136 and 144 (day 60)
[14] = ip QD1-5, 2.00 mg/kg/injection, expt 133 (day 99)
[15] = ip QD1-5, 2.00 mg/kg/injection, expts 136 and 144 (day 60)
[16] = ip QD1-5, 4.00 mg/kg/injection, expt 136 (day 60)

Structure (SMILES): CCOC(=O)NC1=C(N2CC2)C(=O)C(NC(=O)OCC)=C(N2CC2)C1=O [Compound 9, 2,5-Diaziridinyl-3,6-bis (carboethoxyamino)-1,4-benzoquinone]
- activity (%ILS) (lymphoid leukemia L1210 [1]; IP L1210, Q4D schedule): 54%
- optimum dose (lymphoid leukemia L1210 [1]; IP L1210, Q4D schedule): 6.25 mg/kg
- optimum dose (OD) (lymphoid leukemia L1210 [1]; IP L1210, QD1-9): 2 to 3 mg/kg
- therapeutic ratio (TR, highest active dose divided by lowest active dose) (lymphoid leukemia L1210 [1]; IP L1210, QD1-9): approximately 4
- increase in life span (ILS) (lymphoid leukemia L1210 [1]; L1210, Q4D and QD1-9 schedules): > 25%
- antitumor activity (lymphoid leukemia L1210 [1]; L1210 system, Q4D and QD1-9 schedules): very active
- ILS (increase in life span) (lymphoid leukemia L1210 [1]; [9]): 32%
- T - C (average weight change of test group minus control) (lymphoid leukemia L1210 [1]; [9]): -1.4 grams
- ILS (increase in life span) (lymphoid leukemia L1210 [1]; [10]): 60%
- T - C (average weight change of test group minus control) (lymphoid leukemia L1210 [1]; [10]): -2.3 grams
- ILS (increase in life span) (lymphoid leukemia L1210 [1]; IP L1210, ip QD1-9, 2.00 mg/kg/injection): 101% and 125%
- ILS (increase in life span) (lymphoid leukemia L1210 [1]; [11]): 27%
- T - C (average weight change of test group minus control) (lymphoid leukemia L1210 [1]; [11]): -4.1 grams
- T - C (average weight change of test group minus control) (lymphoid leukemia L1210 [1]; IP L1210, ip QD1-9, 12.50 mg/kg/injection): -5.0 grams
- OD (optimum dose) (lymphoid leukemia L1210 [1]; Table IV, (IP) L1210, QD1-9): 3 mg/kg/injection and 2 mg/kg/injection and 4 mg/kg/injection
- % ILS (lymphoid leukemia L1210 [1]; Table IV, (IP) L1210, QD1-9, at OD): 169% and 113% and 101% and 100%
- ILS (%) IP L1210 (lymphoid leukemia L1210 [1]; Table XI, outstanding activity): 169%
- ILS (lymphoid leukemia L1210 [1]; standard IP L1210 test, QD1-9): > 100%
- OD (optimum dose) ([2]; IP P388): 1 to 2 mg/kg
- antitumor activity ([2]; IP P388): very active
- ILS (increase in life span) ([2]; Table II, IP P388, ip QD1-9, 0.78 mg/kg/injection): 111% and 99% and 112%
- ILS (increase in life span) ([2]; Table II, IP P388, ip QD1-9, 1.56 mg/kg/injection): 138% and 135% and 112%
- T - C (average weight change of test group minus control) ([2]; Table II, IP P388, ip QD1-9, 6.25 mg/kg/injection, day 5): -6.1 grams
- OD (optimum dose) ([2]; Table IV, (IP) P388, QD1-9): 1.6 mg/kg/injection and 0.8 mg/kg/injection
- % ILS ([2]; Table IV, (IP) P388, QD1-9, at OD): 138% and 135% and 112%
- survivors of 6 test mice on experiment termination day ([2]; Table IV, (IP) P388, QD1-9, at OD, day 30): 1
- ILS (%) P388 ([2]; Table XI, outstanding activity): 138%
- survivors (number in parentheses) P388 ([2]; Table XI, per 6 test animals, day 30): 1
- OD (optimum dose) (B16 melanocarcinoma; B16): 3.12 mg/kg
- antitumor activity (B16 melanocarcinoma; B16 melanoma): very active
- B16 melanoma activity (ILS) (B16 melanocarcinoma; OD of 3.12 mg/kg): ≤ 70%
- ILS (increase in life span) (B16 melanocarcinoma; B16, ip QD1-9, 1.56 mg/kg/injection): 38% and 44% and 58%
- ILS (increase in life span) (B16 melanocarcinoma; B16, ip QD1-9, 3.12 mg/kg/injection): 58% and 43% and 70%
- OD (optimum dose) (B16 melanocarcinoma; Table IV, (IP) B16, QD1-9): 3 mg/kg/injection
- % ILS (B16 melanocarcinoma; Table IV, (IP) B16, QD1-9, at OD): 94% and 70% and 62%
- ILS (%) B16 (B16 melanocarcinoma; Table XI, outstanding activity): 70%
- antitumor activity (Lewis lung carcinoma; Lewis lung): Marginal activity
- ILS (increase in life span) (Lewis lung carcinoma; Table II, sc Lewis lung, ip QD5-15, 2.00 mg/kg/injection): 38% and 34%
- OD (optimum dose) (lymphoid leukemia L1210 [3]; IC L1210): 3.12 mg/kg
- antitumor activity (lymphoid leukemia L1210 [3]; IC L1210): substantial
- ILS (lymphoid leukemia L1210 [3]; IC L1210, OD 3.12 mg/kg): 79% and 84%
- ILS (increase in life span) (lymphoid leukemia L1210 [3]; ic L1210, ip QD1-9, 1.56 mg/kg/injection): 51% and 46%
- ILS (increase in life span) (lymphoid leukemia L1210 [3]; ic L1210, ip QD1-9, 3.12 mg/kg/injection): 84% and 79%
- ILS (increase in life span) (lymphoid leukemia L1210 [3]; ic L1210, ip QD1-9, 6.25 mg/kg/injection): 10% and 3%
- OD (optimum dose) (lymphoid leukemia L1210 [3]; Table IV, (IC) L1210, QD1-9): 3 mg/kg/injection and 5 mg/kg/injection
- % ILS (lymphoid leukemia L1210 [3]; Table IV, (IC) L1210, QD1-9, at OD): 84% and 79% and 63% and 58%
- ILS (%) IC L1210 (lymphoid leukemia L1210 [3]; Table XI, outstanding activity): 84%
- antitumor activity ([4]; IC P388): substantial
- ILS (increase in life span) ([4]; ic P388, ip QD1-9, 0.39 mg/kg/injection): 7% and 2%
- ILS (increase in life span) ([4]; ic P388, ip QD1-9, 0.78 mg/kg/injection): 27% and 25%
- ILS (increase in life span) ([4]; ic P388, ip QD1-9, 1.56 mg/kg/injection): 37% and 51%
- ILS (increase in life span) ([4]; ic P388, ip QD1-9, 3.12 mg/kg/injection): 39% and 31%
- OD (optimum dose) ([4]; Table IV, (IC) P388, QD1-9): 1.5 mg/kg/injection and 3 mg/kg/injection
- % ILS ([4]; Table IV, (IC) P388, QD1-9, at OD): 51% and 39%
- antitumor activity (ependymoblastoma; IC ependymoblastoma (EM)): curative; also recorded: very active
- ILS (increase in life span) (ependymoblastoma; ip QD1-5, 0.25 mg/kg/injection): 30%
- T - C (average weight change of test group minus control) (ependymoblastoma; ip QD1-5, 0.25 mg/kg/injection): -1.5 grams
- ILS (increase in life span) (ependymoblastoma; ip QD1-5, 0.50 mg/kg/injection): 62%
- T - C (average weight change of test group minus control) (ependymoblastoma; ip QD1-5, 0.50 mg/kg/injection): -1.8 grams
- ILS (increase in life span) (ependymoblastoma; [12]): 348%
- ILS (increase in life span) (ependymoblastoma; [13]): 126% and 171%
- ILS (increase in life span) (ependymoblastoma; [14]): 349%
- ILS (increase in life span) (ependymoblastoma; [15]): 277% and 171%
- ILS (increase in life span) (ependymoblastoma; [16]): 276%
- T - C (average weight change of test group minus control) (ependymoblastoma; ip QD1-5, 8.00 mg/kg/injection): -5.0 grams
- Cures (animals alive per six on day of termination) (ependymoblastoma; [12]): 3/6
- Cures (animals alive per six on day of termination) (ependymoblastoma; [13]): 1/6 and 5/6
- Cures (animals alive per six on day of termination) (ependymoblastoma; [14]): 4/6
- Cures (animals alive per six on day of termination) (ependymoblastoma; [15]): 5/6
- Cures (animals alive per six on day of termination) (ependymoblastoma; [16]): 4/6
- OD (optimum dose) (ependymoblastoma; Table IV, (IC) ependymoblastoma, QD1-5): 2 mg/kg/injection and 1 mg/kg/injection
- % ILS (ependymoblastoma; Table IV, (IC) ependymoblastoma, QD1-5, at OD): > 277% and > 202% and > 172% and > 171%
- survivors of 6 test mice on experiment termination day (ependymoblastoma; Table IV, (IC) ependymoblastoma, QD1-5, at OD, day 60): 5 and 4 and 6
- survivors (number in parentheses) EM (ependymoblastoma; Table XI, per 6 test animals, day 60): 5
- TR (therapeutic ratio) (ependymoblastoma; ependymoblastoma): 4-8
- optimum dose (ependymoblastoma; ependymoblastoma): 1 to 2 mg/kg
- survival (ependymoblastoma; experiment 133, 2.0 mg/kg, day 99): A majority of the test animals were alive on day 99
- solubility [5]: appeared to be adequate
- solubility ([5]; water, approximate, read-out: aqueous solubility): ~500 µg/mL (≈ 1370 µM)
- log P [6]: 0.05
- antitumor activity [7]: does not give multiple cures
- toxicity [8]: reasonably toxic material
- antitumor activity ([8]; IC and other transplanted mouse tumor systems): very substantial activity; also recorded: Antitumor activity was observed; also recorded: intracerebral (IC) as well as IP antitumor activity
- TR (therapeutic ratio) ([8]; last three systems (P388, B16, Lewis lung)): 3-4
